Key:
[1] = Pharmacokinetics in rats after intragastric and intravenous administration; type: in vivo, rat
Method: Six healthy rats were randomly divided into two groups, three for each group. A28 was administered orally and intravenously, and the drug was grounded and dissolved in 0.5% MC. Fasted for 8 h before testing.
Three rats were intravenously administrated with 2 mg/kg of test compound A28, and 3 rats were orally administered with 10 mg/kg of test compound A28. Blood was collected from the orbital venous plexus of rats before administration, at 15 min, 30 min, 1 hour, 2 hours, 4 hours, 8 hours, 24 hours after administration, respectively. Blood sample were taken from three rats at each time point for each dose, and the plasma was immediately centrifuged.

[2] = molecular target: T1, human sodium-glucose cotransporter 2 (SGLT2) (Homo sapiens, UniProt P31639); experiment: In vitro SGLT2 inhibition, methyl-α-D-[U-14C]glucopyranoside uptake in NIH3T3-hSGLT2 cells; type: cell-based
T1 construct: expressed in transfected cells; host or cells: NIH3T3 (mouse fibroblast) cells expressing hSGLT2
T1 sequence (P31639 1-672): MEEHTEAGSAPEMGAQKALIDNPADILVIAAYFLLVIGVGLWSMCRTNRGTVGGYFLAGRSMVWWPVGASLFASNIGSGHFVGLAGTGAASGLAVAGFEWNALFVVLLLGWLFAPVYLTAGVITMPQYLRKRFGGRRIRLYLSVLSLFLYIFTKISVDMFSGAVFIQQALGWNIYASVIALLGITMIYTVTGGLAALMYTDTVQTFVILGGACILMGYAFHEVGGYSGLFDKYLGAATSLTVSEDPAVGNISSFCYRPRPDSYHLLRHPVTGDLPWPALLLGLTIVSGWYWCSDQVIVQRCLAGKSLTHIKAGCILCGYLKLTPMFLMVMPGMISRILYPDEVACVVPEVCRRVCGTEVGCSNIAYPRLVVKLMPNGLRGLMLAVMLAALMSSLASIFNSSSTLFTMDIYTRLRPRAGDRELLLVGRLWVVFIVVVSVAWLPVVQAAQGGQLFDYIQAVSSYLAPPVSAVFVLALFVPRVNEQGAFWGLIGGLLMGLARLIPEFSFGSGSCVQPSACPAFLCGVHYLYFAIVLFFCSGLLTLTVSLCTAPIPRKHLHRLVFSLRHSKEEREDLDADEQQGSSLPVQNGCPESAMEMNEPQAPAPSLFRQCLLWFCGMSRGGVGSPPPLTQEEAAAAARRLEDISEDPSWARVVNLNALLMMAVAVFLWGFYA
Summary of the method: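 The readout was scintillation-counted uptake of 14C-labelled methyl-α-D-glucopyranoside (⅙ mM unlabelled in uptake buffer) in compound-containing KRH-Na+; KRH-acetylcholine defined background. Cells were butyrate-induced (2 mM) NIH3T3-hSGLT2 at 40000/well.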

hSGLT1 = molecular target: T2, hSGLT1 (Homo sapiens, UniProt P13866); experiment: In vitro SGLT1 inhibition (hSGLT1 IC50 test); type: cell-based; conditions: read-out: IC50 ± SD SGLT1
T2 sequence (P13866 1-664): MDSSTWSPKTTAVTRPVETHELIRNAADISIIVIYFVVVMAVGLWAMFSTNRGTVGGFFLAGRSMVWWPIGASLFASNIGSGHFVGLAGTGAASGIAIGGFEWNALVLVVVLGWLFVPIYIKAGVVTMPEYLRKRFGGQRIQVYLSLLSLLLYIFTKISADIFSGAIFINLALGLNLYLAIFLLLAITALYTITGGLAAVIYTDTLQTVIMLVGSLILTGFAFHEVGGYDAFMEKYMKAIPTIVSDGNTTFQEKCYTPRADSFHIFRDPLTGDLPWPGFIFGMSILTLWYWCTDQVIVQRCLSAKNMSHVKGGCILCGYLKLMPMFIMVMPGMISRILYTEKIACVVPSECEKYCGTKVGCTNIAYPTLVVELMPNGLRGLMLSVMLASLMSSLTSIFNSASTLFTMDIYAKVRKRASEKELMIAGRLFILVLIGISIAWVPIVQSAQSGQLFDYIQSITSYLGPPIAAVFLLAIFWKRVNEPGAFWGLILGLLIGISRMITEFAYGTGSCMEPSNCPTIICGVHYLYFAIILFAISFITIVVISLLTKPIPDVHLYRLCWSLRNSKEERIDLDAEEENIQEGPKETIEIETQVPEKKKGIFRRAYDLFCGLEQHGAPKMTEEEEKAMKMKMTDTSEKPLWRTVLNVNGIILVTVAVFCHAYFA

[3] = rat, plasma, po, gavage 10 mg/kg

`CCc1ccc(Cc2cc3c(cc2Cl)CO[C@]32O[C@H](C)[C@@H](O)[C@H](O)[C@H]2O)s1` [Example A28, (1S,3′R,4′S,5′S,6′R)-6′-methyl-6-((5-ethylthienyl)-2-methyl)-5-chloro-3′,4′,5′,6′-tetrahydro-3H-spiro[isobenzofuran-1,2′-pyran]-3′,4′,5′-triol] showed an AUC(0-t) ([1]; rat, plasma, intravenous, vein 2 mg/kg) of 252 ng·h/mL, an AUC(0-inf) ([1]; rat, plasma, iv, vein 2 mg/kg) of 252 ng·h/mL and a Cmax ([1]; rat, plasma, iv, vein 2 mg/kg) of 201 ng/mL. It also gave an MRT ([1]; rat, plasma, iv, vein 2 mg/kg) of 0.982 h, a Tmax ([1]; rat, plasma, iv, vein 2 mg/kg) of 0.25 h and a half-life ([1]; rat, plasma, iv, vein 2 mg/kg) of 1.53 h. For the same molecule, the bioavailability ([1]; rat, plasma, oral, gavage 10 mg/kg vs vein 2 mg/kg, dose normalized, read-out: F (absolute bioavailability)) was 107%, the AUC(0-inf) [1, 3] was 1350 ng·h/mL and the AUC(0-t) [1, 3] was 1350 ng·h/mL. The Cmax [1, 3] was 273 ng/mL, the MRT [1, 3] was 3.79 h and the Tmax [1, 3] was 1.67 h. For the same molecule, the half-life [1, 3] was 1.69 h, the CLz ([1]; vein 2 mg/kg) was 134 mL/min/kg and the Selectivity ([2]; IC50 SGLT1/IC50 SGLT2) was 1450. It also gave an inhibition at 0.01 µM ([2]; SGLT2, 10 nM, read-out: % Inhibition rate ± SD 10 nM) of 67 ± 4.9%, an inhibition at 0.1 µM ([2]; SGLT2, 100 nM, read-out: % Inhibition rate ± SD 100 nM) of 86.1 ± 2.4% and an IC50 ([2]; read-out: IC50 ± SD SGLT2) of 1.42 ± 0.2 nM. For the same molecule, the IC50 (hSGLT1) was 2060 ± 210 nM.

— patent US10550143B2, “C,O-spiro aryl glycoside compounds, preparation therefor and use thereof” (SHANGHAI INSTITUTE OF MATERIA MEDICA, CHINESE ACADEMY OF …, priority 2015, dated 2020)
